Literature values as cited in patent publication US5180725A, “Quinoxalinyl/quinoxaliy; alkyl-N-terminal amino hydroxy” (G. D. Searle & Co., priority 1991, dated 1993).
Square brackets hold non-standard residues; d marks the D form. Peptide text beside a SMILES is read from it. * marks the point of attachment. Sta = CC(C)C[C@H](N)[C@@H](O)CC(=O)O; Isovaleryl = CC(C)CC(=O)*

Tested on: hog renin
Conditions: after the injection of hog renin into nephrectomized rats

In the case of `CC(C)CC(=O)N[C@H](C(=O)N[C@H](C(=O)N[C@@H](CC(C)C)[C@@H](O)CC(=O)N[C@@H](C)C(=O)N[C@@H](CC(C)C)[C@@H](O)CC(=O)O)C(C)C)C(C)C` [pepstatin] (Isovaleryl-VV[Sta]A[Sta]-OH), the “blood pressure in vivo” value is given as “found to reduce blood pressure in vivo”.
